The target of experiment [1] is T1, wild-type Androgen Receptor (AR-wt) (Homo sapiens (Human), UniProt P10275). Nature of the experiment: LNCaP-AR-wt AG reporter assay (agonist mode). Format: cell-based. The conditions noted are these: for EC50: pEC50 = −Log10(EC50 in Molar), read-out: LNCaP-AR-wt AG pEC50 (converted); for Emax: read-out: LNCaP-AR-wt AG MAX % Stim. In general terms: A reporter such as luciferase makes a cellular process visible.

The target in experiment [2] is T1, wild-type Androgen Receptor (AR-wt). Nature of the experiment: LNCaP-AR-wt ANT reporter assay (antagonist mode). The conditions noted are these: for IC50: read-out: LNCaP-AR-wt ANT pIC50 (converted); for Emax: read-out: LNCaP-AR-wt ANT MAX % Inh. The experiment is classed as cell-based.
Experiment [3] deals with T2, F876L mutant Androgen Receptor (AR-F876L) (Homo sapiens (Human), UniProt P10275, F877L). Put plainly: LNCaP-AR-F876L ANT reporter assay (antagonist mode). The experiment is classed as cell-based. The conditions noted are these: for IC50: read-out: LNCaP-AR-F876L ANT pIC50 (converted); for Emax: read-out: LNCaP-AR-F876L ANT MAX % Inh.
In experiment [4] the target is T2, F876L mutant Androgen Receptor (AR-F876L). Nature of the experiment: LNCaP-AR-F876L AG reporter assay (agonist mode). The experiment is classed as cell-based. The conditions noted are these: for EC50: pEC50 = −Log10(EC50 in Molar), read-out: LNCaP-AR-F876L AG pEC50 (converted); for Emax: read-out: LNCaP-AR-F876L AG MAX % Stim.
Experiment [5] relates to rGABA-gated Cl− channel. Nature of the experiment: GABA-Gated Cl Channel Antagonist Radioligand Binding Assay. Also on record: species or system rat. The settings on record: 10 μM single point, [35S]-TBPS, cerebral cortex membrane homogenates. The protocol:
GABA-gated C1 Chanel assays were performed at CEREP according to the following method. Membrane homogenates of cerebral cortex (120 μg protein) were incubated for 120 min at 22° C. with 3 nM […] in the absence or presence of the test compound in a buffer containing 50 mM Na2HPO4/KH2PO4 (pH 7.4) and 500 mM NaCl. Nonspecific binding was determined in the presence of 20 μM picrotoxinin. Following incubation, the samples were filtered rapidly under vacuum through glass fiber filters (GF/B, Packard) presoaked with 0.3% PEI and rinsed several times with ice-cold 50 mM Tris-HCl using a 96-sample cell harvester (Unifilter, Packard). The filters were dried then counted for radioactivity in a scintillation counter (Topcount, Packard) using a scintillation cocktail (Microscint 0, Packard). The results are expressed as a percent inhibition of the control radio ligand specific binding. The standard reference compound is picrotoxinin, which was tested in each experiment at several concentrations to obtain a competition curve from which its IC50 was calculated. In this assay, the following representative compounds disclosed herein had recorded activities at a 10 μM single point concentration in the GABA-gated Cl— Channel Binding Assay.

[6] abbreviates: maximum % stimulation (agonist response) over the tested concentration range.
[7] abbreviates: antagonist mode, pIC50 = −Log10(IC50 in Molar).
Where [8] appears, read: maximum % inhibition of R1881 control response over the tested concentration range.
Setting [9] is: agonist mode, maximum % stimulation over tested concentration range.
Setting [10] is: antagonist mode, maximum % inhibition of R1881 control response over tested concentration range.

Molecules are shown by their SMILES.

T2 sequence (P10275 whole entry F877L): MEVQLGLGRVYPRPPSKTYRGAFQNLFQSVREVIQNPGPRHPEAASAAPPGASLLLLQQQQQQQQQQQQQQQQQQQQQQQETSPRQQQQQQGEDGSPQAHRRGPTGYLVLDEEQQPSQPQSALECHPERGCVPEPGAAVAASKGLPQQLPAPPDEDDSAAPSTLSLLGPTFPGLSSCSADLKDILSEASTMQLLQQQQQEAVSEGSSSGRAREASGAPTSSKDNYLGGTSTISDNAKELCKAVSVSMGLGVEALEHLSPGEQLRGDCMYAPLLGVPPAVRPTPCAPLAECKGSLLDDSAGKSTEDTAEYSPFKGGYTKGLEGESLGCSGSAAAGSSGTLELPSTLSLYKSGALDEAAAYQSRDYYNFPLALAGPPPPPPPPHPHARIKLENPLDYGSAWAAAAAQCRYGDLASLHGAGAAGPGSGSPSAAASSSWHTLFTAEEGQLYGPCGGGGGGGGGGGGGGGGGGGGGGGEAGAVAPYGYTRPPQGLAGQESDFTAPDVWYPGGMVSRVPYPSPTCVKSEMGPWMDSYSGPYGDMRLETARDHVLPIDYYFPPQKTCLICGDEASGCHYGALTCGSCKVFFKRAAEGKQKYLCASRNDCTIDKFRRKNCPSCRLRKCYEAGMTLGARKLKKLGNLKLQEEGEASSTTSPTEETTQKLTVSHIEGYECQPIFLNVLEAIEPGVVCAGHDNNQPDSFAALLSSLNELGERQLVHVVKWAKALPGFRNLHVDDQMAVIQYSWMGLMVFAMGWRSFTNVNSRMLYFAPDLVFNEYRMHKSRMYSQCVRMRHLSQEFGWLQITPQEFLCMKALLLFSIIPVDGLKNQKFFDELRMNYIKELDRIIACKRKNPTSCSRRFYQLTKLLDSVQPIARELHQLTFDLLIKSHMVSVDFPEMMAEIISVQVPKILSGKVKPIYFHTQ
T1 sequence (P10275 whole entry): as the sequence (P10275 whole entry F877L) above, with L877F counted along it

On to `CN1CC[C@H](Oc2ccc(N3C(=S)N(c4cnc(C#N)c(C(F)(F)F)c4)C(=O)C34CCC4)cc2)[C@@H](F)C1` (racemic) [Cpd 92, 5-[8-[(3SR, 4SR)-4-[(3-fluoro-1-methyl-4-piperidyl)oxy]phenyl]-5-oxo-7-thioxo-6,8-diazaspiro[3.4]octan-6-yl]-3-(trifluoromethyl)pyridine-2-carbonitrile], for which the EC50 in experiment [1] (agonist mode) and in experiment [4] (agonist mode) was greater than 15100 nM throughout. The Emax in experiment [1] (setting [6]) came out at 0.3%; in experiment [2] (setting [8]), 101%; in experiment [3] (setting [8]), 98.2%; in experiment [4] (setting [6]) it was 0.5%. Moreover, the IC50 in experiment [2] (setting [7]) was 77.6 nM; in experiment [3] (setting [7]), 60.3 nM. Moreover, the “rGABA-gated Cl− channel % inh @10 μM” value in experiment [5] is listed as 73.4%.

Consider `N#Cc1ncc(N2C(=O)C3(CCC3)N(c3ccc(O[C@H]4CCNC[C@@H]4F)cc3)C2=S)cc1C(F)(F)F` (racemic) [Cpd 95, 5-[8-[(3SR, 4SR)-4-[(3-fluoro-4-piperidyl)oxy]phenyl]-5-oxo-7-thioxo-6,8-diazaspiro[3.4]octan-6-yl]-3-(trifluoromethyl)pyridine-2-carbonitrile], for which the EC50 in experiment [1] (agonist mode) and in experiment [4] (agonist mode) was greater than 15100 nM in each case. For the same molecule, the Emax came out at 0.1% in experiment [1] (setting [6]), 101% in experiment [2] (setting [8]), 99.7% in experiment [3] (setting [8]) and 0.3% in experiment [4] (setting [6]). Besides, the values for the IC50 in experiment [2] (setting [7]) and in experiment [3] (setting [7]) were 112 nM and 44.7 nM, respectively. The “rGABA-gated Cl− channel % inh @10 μM” value in experiment [5] came out at 26.5%.

Consider `N#Cc1ncc(N2C(=O)C3(CCC3)N(c3ccc(O[C@H]4CCNC[C@H]4F)cc3)C2=S)cc1C(F)(F)F` (racemic) [Cpd 96, 5-[8-(3RS, 4SR) [4-[(3-fluoro-4-piperidyl)oxy]phenyl]-5-oxo-7-thioxo-6,8-diazaspiro[3.4]octan-6-yl]-3-(trifluoromethyl)pyridine-2-carbonitrile], for which the EC50 in experiment [1] (agonist mode) and in experiment [4] (agonist mode) was greater than 15100 nM throughout. Moreover, the Emax in experiment [1] (setting [6]) turned out to be 0.9%; in experiment [2] (setting [8]) it was 100%; in experiment [3] (setting [8]), 99.9%; in experiment [4] (setting [6]) it was 0.4%. The IC50 was 126 nM in experiment [2] (setting [7]) and 74.1 nM in experiment [3] (setting [7]). The “rGABA-gated Cl− channel % inh @10 μM” value in experiment [5] is given as 26.5%.

On to `N#Cc1ncc(N2C(=O)C3(CCC3)N(c3ccc(O[C@@H]4CCN[C@H](C(F)(F)F)C4)cc3)C2=S)cc1C(F)(F)F` (racemic) [Cpd 101, 5-[5-oxo-7-thioxo-8-[4-[[(2SR,4RS)-2-(trifluoromethyl)-4-piperidyl]oxy]phenyl]-6,8-diazaspiro[3.4]octan-6-yl]-3-(trifluoromethyl)pyridine-2-carbonitrile], for which the EC50 in experiment [1] (agonist mode) and in experiment [4] (agonist mode) was greater than 15100 nM in each case. Besides, the Emax amounted to 0.3% in experiment [1] (setting [6]), 102% in experiment [2] (setting [8]), 98.3% in experiment [3] (setting [8]) and 0.7% in experiment [4] (setting [6]). In addition, the IC50 in experiment [2] (setting [7]) was 155 nM; in experiment [3] (setting [7]), 123 nM. Also, the “rGABA-gated Cl− channel % inh @10 μM” value in experiment [5] was found to be 83.9%.

On to `CN1CC[C@H](Oc2ccc(N3C(=S)N(c4cnc(C#N)c(C(F)(F)F)c4)C(=O)C34CCC4)cc2)[C@H](F)C1` (racemic) [Cpd 102], for which the EC50 in experiment [1] (agonist mode) and in experiment [4] (agonist mode) was greater than 15100 nM in each case. The Emax in experiment [1] (setting [6]) was determined as 0.4%; in experiment [2] (setting [8]), 99.7%; in experiment [3] (setting [8]), 99.6%; in experiment [4] (setting [6]), 0.3%. Moreover, the results for the IC50 in experiment [2] (setting [7]) and in experiment [3] (setting [7]) were 79.4 nM and 49 nM, respectively. In addition, the “rGABA-gated Cl− channel % inh @10 μM” value in experiment [5] stood at 52.1%.

For the molecule `N#Cc1ncc(N2C(=O)C3(CCC3)N(c3ccc(O[C@@H]4CCN[C@@H](C(F)(F)F)C4)cc3)C2=S)cc1C(F)(F)F` (racemic) [Cpd 106, 5-[5-oxo-7-thioxo-8-[4-[[(2RS,4RS)-2-(trifluoromethyl)-4-piperidyl]oxy]phenyl]-6,8-diazaspiro[3.4]octan-6-yl]-3-(trifluoromethyl)pyridine-2-carbonitrile], the EC50 in experiment [1] (agonist mode) and in experiment [4] (agonist mode) was greater than 15100 nM each time. In addition, the Emax is 0.1% in experiment [1] (setting [6]), 102% in experiment [2] (setting [8]), 99.7% in experiment [3] (setting [8]) and 0.7% in experiment [4] (setting [6]). Also, the values for the IC50 in experiment [2] (setting [7]) and in experiment [3] (setting [7]) were 174 nM and 219 nM, respectively. Moreover, in experiment [5], the “rGABA-gated Cl− channel % inh @10 μM” value is on record as 87.1%.

On to `CN1CCC(Oc2ccc(N3C(=S)N(c4cnc(C#N)c(C(F)(F)F)c4)C(=O)C34CCC4)cc2)CC1=O` (racemic) [Cpd 189, (R,S)-5-[8-[4-[(1-methyl-2-oxo-4-piperidyl)oxy]phenyl]-5-oxo-7-thioxo-6,8-diazaspiro[3.4]octan-6-yl]-3-(trifluoromethyl)pyridine-2-carbonitrile], for which the Emax in experiment [1] (setting [9]) stood at 0%; in experiment [2] (setting [10]), 100%; in experiment [3] (setting [10]), 99.1%; in experiment [4] (setting [9]), 1.7%. Besides, the EC50 in experiment [1] (agonist mode) and in experiment [4] (agonist mode) was greater than 15100 nM in each case. The IC50 is 69.2 nM in experiment [2] (setting [7]) and 81.3 nM in experiment [3] (setting [7]). Moreover, the “rGABA-gated Cl− channel % inh @10 μM” value in experiment [5] amounted to 90.4%.

As for `N#Cc1ncc(N2C(=O)C3(CCC3)N(c3ccc(OC4CCNC(=O)C4)cc3)C2=S)cc1C(F)(F)F` (racemic) [Cpd 195, (R,S)-5-[5-oxo-8-[4-[(2-oxo-4-piperidyl)oxy]phenyl]-7-thioxo-6,8-diazaspiro[3.4]octan-6-yl]-3-(trifluoromethyl)pyridine-2-carbonitrile], the Emax in experiment [1] (setting [9]) amounted to 0%; in experiment [2] (setting [10]), 102%; in experiment [3] (setting [10]), 100%; in experiment [4] (setting [9]), 0.6%. Further, the EC50 in experiment [1] (agonist mode) and in experiment [4] (agonist mode) was greater than 15100 nM in each case. Also, the IC50 in experiment [2] (setting [7]) was 186 nM; in experiment [3] (setting [7]), 174 nM. The “rGABA-gated Cl− channel % inh @10 μM” value in experiment [5] stood at 94.2%.

For `N#Cc1ncc(N2C(=O)C3(CCC3)N(c3ccc(O[C@H]4CCN[C@H](CO)C4)cc3)C2=S)cc1C(F)(F)F` (racemic) [Cpd 222, 5-[8-(2SR,4SR)[4-[[2-(hydroxymethyl)-4-piperidyl]oxy]phenyl]-5-oxo-7-thioxo-6,8-diazaspiro[3.4]octan-6-yl]-3-(trifluoromethyl)pyridine-2-carbonitrile], the Emax in experiment [1] (setting [9]) was 2.3%; in experiment [2] (setting [10]) it was 99.6%; in experiment [3] (setting [10]), 99.6%; in experiment [4] (setting [9]) it was 0.2%. Besides, the EC50 in experiment [1] (agonist mode) and in experiment [4] (agonist mode) was greater than 15100 nM each time. For the same molecule, the IC50 in experiment [2] (setting [7]) was 129 nM; in experiment [3] (setting [7]), 81.3 nM. Further, the “rGABA-gated Cl− channel % inh @10 μM” value in experiment [5] is recorded as 61.4%.

Take `CN1CCC(Oc2ccc(N3C(=S)N(c4cnc(C#N)c(C(F)(F)F)c4)C(=O)C34CCC4)cn2)CC1` [Cpd 1, 5-[8-[6-[(1-methyl-4-piperidyl)oxy]-3-pyridyl]-5-oxo-7-thioxo-6,8-diazaspiro[3.4]octan-6-yl]-3-(trifluoromethyl)pyridine-2-carbonitrile]: the EC50 in experiment [1] (agonist mode) and in experiment [4] (agonist mode) was greater than 15100 nM each time. Also, the Emax in experiment [1] (setting [6]) is -0.1%; in experiment [2] (setting [8]), 101%; in experiment [3] (setting [8]), 101%; in experiment [4] (setting [6]), 0.1%. Moreover, in experiment [2] (setting [7]), the “LNCaP-AR-wt ANT pIC50” value came out at 6.94. For the same molecule, the “LNCaP-AR-F876L ANT pIC50” value in experiment [3] (setting [7]) is 7.07. In addition, the “rGABA-gated Cl− channel % inh @10 μM” value in experiment [5] is 6.3%.

Take `Cc1cc(N2C(=O)C3(CCC3)N(c3ccc(OC4CCN(C)CC4)nc3)C2=S)cnc1C#N` [Cpd 2, 3-methyl-5-[8-[6-[(1-methyl-4-piperidyl)oxy]-3-pyridyl]-5-oxo-7-thioxo-6,8-diazaspiro[3.4]octan-6-yl]pyridine-2-carbonitrile]: the EC50 in experiment [1] (agonist mode) and in experiment [4] (agonist mode) was greater than 15100 nM each time. The Emax in experiment [1] (setting [6]) came to 0.5%; in experiment [2] (setting [8]), 101%; in experiment [3] (setting [8]) it was 99.9%; in experiment [4] (setting [6]), 0.2%. The IC50 in experiment [2] (setting [7]) is 245 nM; in experiment [3] (setting [7]) it was 123 nM. For the same molecule, in experiment [5], the “rGABA-gated Cl− channel % inh @10 μM” value is 1.6%.

The record behind these values is US10981926B2 (Janssen Pharmaceutica NV, priority 2016, dated 2021).
